# What was measured:
# AhR-RORγt complex = experiment: Proximity ligation assay (PLA) in peripheral blood T cells of SLE and RA patients; type: cell-based, human; conditions: 5 μM for 30 min
# Procedure: (A) Luciferase activity of NF-κB-driven reporter assays in stable GLK-transfected CHO-K1 cells that were treated with or without the GLK inhibitor C1 (verteporfin) under the indicated concentration. The fold changes are presented relative to the value of vector control. (B) Recombinant proteins of GLK kinase domain plus recombinant proteins of GST-tagged kinase-dead PKCθ (K409W) were subjected to in vitro kinase assays in the presence or absence of the GLK inhibitor C1 (verteporfin). Means±SD of are shown. *, P value<0.05; **, P value<0.01 (two-tailed Student's t-test). (C) The AhR-RORγt complex was inhibited by the GLK inhibitor. […] (D) Quantification of the PLA signals of (C). […]
# PLA assays were performed using the DUOLINK® In Situ Red Starter kit (Sigma) according to the manufacturer's instructions. […] After ligation and amplification reactions, the PLA signals from each pair of PLA probes in close proximity (<40 nm) were visualized as individual red dots by a fluorescence microscope (Leica DM2500) or a confocal microscope (Leica TCS SP5II). […]
# T cells of Lck-GLK transgenic mice, GLK-overexpressing T cells, activated T cells or AhR+RORγt+IKKβ-overexpressing cells were used. […] After ligation and amplification reactions, the PLA signals from each pair of PLA probes in close proximity ([…]) were visualized as individual red dots by a fluorescence or a confocal microscope. […]
# Lck-GLK Tg mice = experiment: Treatment of Lck-GLK Tg mice, serum ELISA; type: in vivo, mouse; conditions: 0.556 nmole/g i.v. every 3 days for 30 days
# From the text: (A to C) Effect of the GLK inhibitor C1 (verteporfin) administration (0.556 nmole/g every 3 days for 30 days) on serum IL-17A and autoantibodies in Lck-GLK Tg mice. (B) ELISA of indicated serum cytokines in Lck-GLK Tg mice treated with C1 (verteporfin) or PBS. (C) ELISA of serum autoantibodies in Lck-GLK Tg mice treated with C1 (verteporfin) or PBS. Means±SEM are shown. (D) Experimental autoimmune encephalomyelitis (EAE) induction in wild-type mice treated with PBS, or the GLK inhibitor C1 (verteporfin) and C2. Clinical scores are presented on a scale of 1 to 5 (left panel). ELISA of IL-17A in the sera from MOG-immunized mice at day 16 (right panel). (E) Collagen-induced arthritis (CIA) induction in wild-type mice treated with the GLK inhibitor C1 (verteporfin) or PBS. Clinical scores are presented on a scale of 1 to 16 (left panel). ELISA of IL-17A in the sera from collagen-immunized mice at day 28. […]
# Serum levels of IL-1β, IL-4, IL-6, IL-12, IL-17F, IL-21, IL-22, IL-23, IFN-γ, TNF-α, and TGF-β were analyzed by individual ELISA kits purchased from eBioscience. The IL-17A levels were determined using an ELISA kit from Biolegend. The serum levels of anti-nuclear antibodies (ANA), anti-dsDNA antibody, and rheumatoid factor (RF) were analyzed by ELISA kits purchased from Alpha Diagnostic International. […]
# CIA in wild-type mice = experiment: Collagen-induced arthritis (CIA) induction in wild-type mice; type: in vivo, mouse
# From the text: (A to C) Effect of the GLK inhibitor C1 (verteporfin) administration (0.556 nmole/g every 3 days for 30 days) on serum IL-17A and autoantibodies in Lck-GLK Tg mice. (B) ELISA of indicated serum cytokines in Lck-GLK Tg mice treated with C1 (verteporfin) or PBS. (C) ELISA of serum autoantibodies in Lck-GLK Tg mice treated with C1 (verteporfin) or PBS. Means±SEM are shown. (D) Experimental autoimmune encephalomyelitis (EAE) induction in wild-type mice treated with PBS, or the GLK inhibitor C1 (verteporfin) and C2. Clinical scores are presented on a scale of 1 to 5 (left panel). ELISA of IL-17A in the sera from MOG-immunized mice at day 16 (right panel). (E) Collagen-induced arthritis (CIA) induction in wild-type mice treated with the GLK inhibitor C1 (verteporfin) or PBS. Clinical scores are presented on a scale of 1 to 16 (left panel). ELISA of IL-17A in the sera from collagen-immunized mice at day 28. Means±SEM are shown. *, P value<0.05; **, P value<0.01; ***, P value<0.001 (two-tailed Student's […]). C1 denotes verteporfin; C2 denotes alexidine dihydrochloride.
# Moreover, overproduction of autoantibodies in Lck-GLK Tg mice were also abolished by C1 (verteporfin) treatment (FIG. 10C). […] To further verify that the GLK inhibitors also works in IL-17A-mediated animal models, we challenged wild-type mice with C1 (verteporfin) or C2 (alexidine dihydrochloride) during EAE and CIA induction.
# [1] = tested on: in vitro differentiated Th17 cells; experiment: IL-17A production of in vitro differentiated Th17 cells, flow cytometry; type: cell-based, mouse; conditions: PMA plus ionomycin, 1 or 5 μM for 30 min
# Procedure: (A) Flow cytometry of IL-17A-producing CD4^+ T cells. Splenic T cells were co-treated with verteporfin (C1) (1 or 5 μM) during Th17 differentiation in vitro. (B) Flow cytometry of IL-17A-producing CD4^+ T cells. Murine in vitro differentiated Th17 cells were stimulated with PMA plus ionomycin and co-treated with verteporfin (C1) (1 or 5 μM) for 30 min. (C) Flow cytometry of Foxp3-producing […] T cells. Splenic T cells were co-treated with verteporfin (C1) (5 μM) during Treg differentiation in vitro. (D) Flow cytometry of Foxp3-producing CD4^+ T cells, which were differentiated from CD4^+ T cells of wild-type or Lck-GLK transgenic mice.
compound,measurement,setting,value
"C=Cc1c(C)c2cc3nc(cc4[nH]c(cc5nc(cc1[nH]2)C(C)=C5CCC(=O)O)c(CCC(=O)OC)c4C)[C@@]1(C)C3=CC=C(C(=O)OC)[C@H]1C(=O)OC [C1, verteporfin]",AhR-RORγt complex in T cells from SLE and RA patients,AhR-RORγt complex,blocked
same,PLA signals (quantification) of AhR with RORγt or phospho-RORγt (S489),AhR-RORγt complex,inhibited
same,overproduction of autoantibodies,Lck-GLK Tg mice,abolished
same,serum IL-17A levels,Lck-GLK Tg mice; vs PBS,significantly decreased
same,serum IL-17A levels in CIA,CIA in wild-type mice; day 28,inhibited
same,disease severity (clinical score) in CIA,"CIA in wild-type mice; mouse, in vivo",inhibited
same,IL-17A production from in vitro differentiated Th17 cells,[1],inhibited

# Source: patent US11360080B2, “AhR-ROR-γt complex as a biomarker and therapeutic target for autoimmune disease and IL-17A-associated disease” (NATIONAL HEALTH RESEARCH INSTITUTES, priority 2018, dated 2022)
